Assay results: patent US5498780A, “Platinum complex and malignant tumor treating drug containing the same” (SS Pharmaceutical Co., Ltd., priority 1994, dated 1996)

Columns and labels:
[1] = 50% lethal dose by single peritoneal administration, obtained at the time of the dose setting; type: in vivo, CDF1 mice
Source text: (§1) In these tables, ILSmax means maximum ILS value (%), and corresponding dose (mg/kg) is Shown in parenthesis.

[2] = test system: murine L1210 leukemia cell; assay: Antitumor effect on murine L1210 leukemia cell (increase in life-span of inoculated mice); type: in vivo, murine; male CDF1 mice; conditions: for ILSmax (maximum percent increase in life-span) / ILS50 (dose which shows 50% of the ILS value by 5 administrations) / dose corresponding to ILSmax: L1210, i.p. once a day for 5 days; for ILSmax (maximum percent increase in life-span): 30 days observation; for ILS50 (dose which shows 50% of the ILS value by 5 administrations): linear regression; for TI (therapeutic index, LD50 value/ILS50 value): L1210
Procedure: (§2) Murine L1210 leukemia cells (1×10^5 cells) were inoculated peritoneally into six-week-old male CDF1 mice on day 0. From the next day after the inoculation, a drug (the compound of the invention or a compound for comparison) was administered peritoneally once a day for 5 days. After 30 days of observation, the percent increase in life-span (ILS) was calculated as follows: […]
(§3) T: mean survival days of the drug-treated group
(§4) C: mean survival days of control group
as §1

[3] = test system: cisplatin-resistant murine L1210 leukemia cell (L1210/DDP); assay: Antitumor effect on cisplatin-resistant murine L1210 leukemia cell (L1210/DDP); type: in vivo, murine; male CDF1 mice; conditions: for ILSmax (maximum percent increase in life-span) / dose corresponding to ILSmax / ILS50 (dose which shows 50% of the ILS value by 5 administrations): i.p. once a day for 5 days; for ILSmax (maximum percent increase in life-span): 30 days observation; for ILS50 (dose which shows 50% of the ILS value by 5 administrations): linear regression
Procedure: as §2, §3, §4
In these tables, ILSmax means maximum ILS value (%), and corresponding dose (mg/kg) is Shown in parenthesis. In this test, cisplatin and carboplatin were respectively tested in each test lot for accurate comparison.
Antitumor effect on cisplatin-resistant murine L1210 leukemia cell (L1210/DDP):
The test of Test Example 1 was repeated except that cisplatin-resistant murine L1210 leukemia cell (L1210/DDP) was used instead of murine L1210 leukemia cell.

[4] = test system: murine P388 leukemia cell; assay: Antitumor effect on murine P388 leukemia cell; type: in vivo, murine; male CDF1 mice; conditions: for ILSmax (maximum percent increase in life-span) / ILS50 (dose which shows 50% of the ILS value by 5 administrations) / dose corresponding to ILSmax: P388, i.p. once a day for 5 days; for ILSmax (maximum percent increase in life-span): 30 days observation; for ILS50 (dose which shows 50% of the ILS value by 5 administrations): linear regression; for TI (therapeutic index, LD50 value/ILS50 value): P388
Procedure: as §2, §3, §4, §1
Antitumor effect on murine P388 leukemia cell:
The test of Test Example 1 was repeated except that 1×10^6 of murine P388 leukemia cells were used instead of 1×10^5 of murine L1210 leukemia cells.

Structure (SMILES): CCON.N.[Cl][Pt][Cl] [Compound No. 5, cis-dichloroammine (O-ethylhydroxylamine)platinum(II)]
- LD50 (50% lethal dose) [1]: 22.1 mg/kg
- ILSmax (maximum percent increase in life-span) ([2]; Table 4 test lot): > 109.4%
- ILS50 (dose which shows 50% of the ILS value by 5 administrations) ([2]; Table 4 test lot): 0.9 mg/kg
- dose corresponding to ILSmax ([2]; Table 4 test lot): 4.0 mg/kg
- TI (therapeutic index, LD50 value/ILS50 value) ([2]; Table 4 test lot): 24.6
- TI (therapeutic index, LD50 value/ILS50 value) ([3]; Table 6 test lot): 27.6
- ILSmax (maximum percent increase in life-span) ([3]; Table 6 test lot): > 152.8%
- dose corresponding to ILSmax ([3]; Table 6 test lot): 2.0 mg/kg
- ILS50 (dose which shows 50% of the ILS value by 5 administrations) ([3]; Table 6 test lot): 0.8 mg/kg
- ILSmax (maximum percent increase in life-span) ([4]; Table 8 test lot): > 129.6%
- ILS50 (dose which shows 50% of the ILS value by 5 administrations) ([4]; Table 8 test lot): 0.6 mg/kg
- dose corresponding to ILSmax ([4]; Table 8 test lot): 4.0 mg/kg
- TI (therapeutic index, LD50 value/ILS50 value) ([4]; Table 8 test lot): 36.8

Structure (SMILES): N.NOC1CCCCC1.[Cl][Pt][Cl] [Compound No. 9, cis-dichloroammine (O-cyclohexylhydroxylamine)platinum(II)]
- LD50 (50% lethal dose) [1]: 22.1 mg/kg
- ILSmax (maximum percent increase in life-span) ([2]; Table 5 test lot): 108.8%
- ILS50 (dose which shows 50% of the ILS value by 5 administrations) ([2]; Table 5 test lot): 1.3 mg/kg
- dose corresponding to ILSmax ([2]; Table 5 test lot): 4.0 mg/kg
- TI (therapeutic index, LD50 value/ILS50 value) ([2]; Table 5 test lot): 17.0
- TI (therapeutic index, LD50 value/ILS50 value) ([3]; Table 7 test lot): > 22.1
- ILSmax (maximum percent increase in life-span) ([3]; Table 7 test lot): > 206.1%
- dose corresponding to ILSmax ([3]; Table 7 test lot): 1.0 mg/kg
- ILS50 (dose which shows 50% of the ILS value by 5 administrations) ([3]; Table 7 test lot): < 1.0 mg/kg
- ILSmax (maximum percent increase in life-span) ([4]; Table 9 test lot): 114.4%
- ILS50 (dose which shows 50% of the ILS value by 5 administrations) ([4]; Table 9 test lot): < 1.0 mg/kg
- dose corresponding to ILSmax ([4]; Table 9 test lot): 4.0 mg/kg
- TI (therapeutic index, LD50 value/ILS50 value) ([4]; Table 9 test lot): > 22.1
